Where two headings read alike, the source gives them in different places.
Legend:
Phytophthora infestans [1] = type: in vivo; settings: Table B3; A-1.2 15 gai/ha; leaf area, four days after final application
Phytophthora infestans [2] = type: in vivo
Phytophthora capsici = assay: Activity against Phytophthora capsici, growth inhibition in nutrient broth (microtiter plate); type: cell-based; settings: Phytophthora capsici, read-out: % disease control; for inhibition of growth at 6.25e-05 ppm: A-1.2 0.0000625 ppm; for inhibition of growth at 0.0005 ppm: A-1.2 0.0005000 ppm; for inhibition of growth at 3.9e-06 ppm: A-1.2 0.0000039 ppm; for inhibition of growth at 7.8e-06 ppm: A-1.2 0.0000078 ppm; for inhibition of growth at 1.56e-05 ppm: A-1.2 0.0000156 ppm; for inhibition of growth at 3.13e-05 ppm: A-1.2 0.0000313 ppm
Description: Conidia of the fungus from cryogenic storage are directly mixed into nutrient broth (PDB potato dextrose broth). After placing a (DMSO) solution of test compound into a microtiter plate (96-well format), the nutrient broth containing the fungal spores is added. […] Table B4 to B21 gives the mean percent control relative to untreated.

Plasmopara viticola = assay: Field activity against Plasmopara viticola on grapevine; type: in vivo; settings: Table B2; A-1.2 22.5 gai/ha; bunches, ten days after sixth application
Excerpt: Merlot grapevines were cultivated in rows with 1 m between plants within the row, and 2 m spaces between rows. Treatment plots were defined with an 8 m^2 vertical area. The trial consisted of three replicates of the treatment list, with the positions of each treatment plot randomised within the replicate.
Test compounds were formulated and applied to the relevant treatment plots, using a backpack sprayer with a flat fan nozzle. The first application was made when the majority of plants were at growth stage BBCH 15 and following applications at 10-14 day intervals through to growth stage BBCH 79.
The first symptoms of the target pathogen Plasmopara viticola were observed between the second and third applications. Plants outside the trial area were inoculated to increase the disease pressure, but infection processes within the trial plots were natural. […]
Ten days after the sixth application, at growth stage BBCH 79, the fruit was assessed for infection by Plasmopara viticola. 50 bunches per plot were assessed, the scores given in table B2 are percent disease control relative to untreated, based on the mean percentage of bunches showing symptoms of infection across all three replicates of a treatment.

Question: Which “% disease control relative to untreated” value (Phytophthora infestans [1]) does the source give for `O=C(N[C@@H]1CCCc2ccccc21)c1cc(C2CCN(C(=O)Cn3nc(C(F)F)cc3C(F)F)CC2)ccn1` [Compound A-1.2, 1′-[2-(3,5-bis-difluoromethyl-pyrazol-1-yl)-acetyl]-1′,2′,3′,4′,5′,6′-hexahydro-[4,4′]bipyridinyl-2-carboxylic acid (R)-(1,2,3,4-tetrahydronaphthalen-1-yl)-amide] here?
Answer: 64.8%

Question: What about the “% disease control” value (Phytophthora infestans [2]; Table B1.1, A-1.2 0.02 ppm) of the same molecule?
Answer: 0%

Question: And the “% disease control” value (Phytophthora infestans [2]; Table B1.1, A-1.2 0.06 ppm)?
Answer: 14%

Question: What about the “% disease control” value (Phytophthora infestans [2]; Table B1.2, A-1.2 0.06 ppm) of the same molecule?
Answer: 14%

Question: And the “% disease control” value (Phytophthora infestans [2]; Table B1.3, A-1.2 0.06 ppm)?
Answer: 14%

Question: And the inhibition of growth at 6.25e-05 ppm (Phytophthora capsici; Table B4)?
Answer: 0%

Question: And the inhibition of growth at 0.000125 ppm (Phytophthora capsici; Table B4, A-1.2 0.0001250 ppm)?
Answer: 32%

Question: And the inhibition of growth at 0.00025 ppm (Phytophthora capsici; Table B4, A-1.2 0.0002500 ppm)?
Answer: 64%

Question: What about the inhibition of growth at 0.0005 ppm (Phytophthora capsici; Table B4) of the same molecule?
Answer: 76%

Question: And the inhibition of growth at 2e-06 ppm (Phytophthora capsici; Table B5, A-1.2 0.0000020 ppm)?
Answer: 0%

Question: What about the inhibition of growth at 3.9e-06 ppm (Phytophthora capsici; Table B5) of the same molecule?
Answer: 0%

Question: And the inhibition of growth at 7.8e-06 ppm (Phytophthora capsici; Table B5)?
Answer: 0%

Question: What about the inhibition of growth at 1.56e-05 ppm (Phytophthora capsici; Table B5) of the same molecule?
Answer: 0%

Question: What about the inhibition of growth at 3.13e-05 ppm (Phytophthora capsici; Table B5) of the same molecule?
Answer: 0%

Question: And the inhibition of growth at 6.25e-05 ppm (Phytophthora capsici; Table B5)?
Answer: 47%

Question: What about the inhibition of growth at 6.25e-05 ppm (Phytophthora capsici; Table B6) of the same molecule?
Answer: 0%

Question: And the inhibition of growth at 0.000125 ppm (Phytophthora capsici; Table B6, A-1.2 0.0001250 ppm)?
Answer: 40%

Question: What about the inhibition of growth at 0.00025 ppm (Phytophthora capsici; Table B6, A-1.2 0.0002500 ppm) of the same molecule?
Answer: 78%

Question: And the inhibition of growth at 3.9e-06 ppm (Phytophthora capsici; Table B7)?
Answer: 0%

Question: And the inhibition of growth at 7.8e-06 ppm (Phytophthora capsici; Table B7)?
Answer: 0%

Question: And the inhibition of growth at 1.56e-05 ppm (Phytophthora capsici; Table B7)?
Answer: 0%

Question: What about the inhibition of growth at 3.13e-05 ppm (Phytophthora capsici; Table B7) of the same molecule?
Answer: 0%

Question: What about the inhibition of growth at 6.25e-05 ppm (Phytophthora capsici; Table B7) of the same molecule?
Answer: 38%

Question: What about the inhibition of growth at 0.000125 ppm (Phytophthora capsici; Table B7, A-1.2 0.0001250 ppm) of the same molecule?
Answer: 42%

Question: What about the inhibition of growth at 6.25e-05 ppm (Phytophthora capsici; Table B8) of the same molecule?
Answer: 3%

Question: What about the inhibition of growth at 0.000125 ppm (Phytophthora capsici; Table B8, A-1.2 0.0001250 ppm) of the same molecule?
Answer: 56%

Question: And the inhibition of growth at 0.00025 ppm (Phytophthora capsici; Table B8, A-1.2 0.0002500 ppm)?
Answer: 69%

Question: And the inhibition of growth at 6.25e-05 ppm (Phytophthora capsici; Table B9)?
Answer: 0%

Question: And the inhibition of growth at 0.000125 ppm (Phytophthora capsici; Table B9, A-1.2 0.0001250 ppm)?
Answer: 47%

Question: What about the inhibition of growth at 6.25e-05 ppm (Phytophthora capsici; Table B10) of the same molecule?
Answer: 12%

Question: What about the inhibition of growth at 0.000125 ppm (Phytophthora capsici; Table B10, A-1.2 0.0001250 ppm) of the same molecule?
Answer: 62%

Question: And the inhibition of growth at 6.25e-05 ppm (Phytophthora capsici; Table B11)?
Answer: 0%

Question: And the inhibition of growth at 0.000125 ppm (Phytophthora capsici; Table B11, A-1.2 0.0001250 ppm)?
Answer: 55%

Question: What about the inhibition of growth at 0.00025 ppm (Phytophthora capsici; Table B11, A-1.2 0.0002500 ppm) of the same molecule?
Answer: 82%

Question: What about the inhibition of growth at 3.13e-05 ppm (Phytophthora capsici; Table B12) of the same molecule?
Answer: 0%

Question: What about the inhibition of growth at 6.25e-05 ppm (Phytophthora capsici; Table B12) of the same molecule?
Answer: 0%

Question: What about the inhibition of growth at 0.000125 ppm (Phytophthora capsici; Table B12, A-1.2 0.0001250 ppm) of the same molecule?
Answer: 57%

Question: And the inhibition of growth at 0.00025 ppm (Phytophthora capsici; Table B12, A-1.2 0.0002500 ppm)?
Answer: 81%

Question: What about the inhibition of growth at 0.000125 ppm (Phytophthora capsici; Table B13, A-1.2 0.0001250 ppm) of the same molecule?
Answer: 46%

Question: And the inhibition of growth at 0.00025 ppm (Phytophthora capsici; Table B13, A-1.2 0.0002500 ppm)?
Answer: 69%

Question: What about the inhibition of growth at 0.0005 ppm (Phytophthora capsici; Table B13) of the same molecule?
Answer: 84%

Question: What about the inhibition of growth at 1.56e-05 ppm (Phytophthora capsici; Table B14) of the same molecule?
Answer: 0%

Question: What about the inhibition of growth at 3.13e-05 ppm (Phytophthora capsici; Table B14) of the same molecule?
Answer: 0%

Question: And the inhibition of growth at 6.25e-05 ppm (Phytophthora capsici; Table B14)?
Answer: 0%

Question: And the inhibition of growth at 1.56e-05 ppm (Phytophthora capsici; Table B15)?
Answer: 0%

Question: What about the inhibition of growth at 3.13e-05 ppm (Phytophthora capsici; Table B15) of the same molecule?
Answer: 0%

Question: And the inhibition of growth at 6.25e-05 ppm (Phytophthora capsici; Table B15)?
Answer: 0%

Question: And the inhibition of growth at 0.000125 ppm (Phytophthora capsici; Table B15, A-1.2 0.0001250 ppm)?
Answer: 71%

Question: And the inhibition of growth at 0.000125 ppm (Phytophthora capsici; Table B16, A-1.2 0.0001250 ppm)?
Answer: 54%

Question: And the inhibition of growth at 6.25e-05 ppm (Phytophthora capsici; Table B17)?
Answer: 0%

Question: What about the inhibition of growth at 0.000125 ppm (Phytophthora capsici; Table B17, A-1.2 0.0001250 ppm) of the same molecule?
Answer: 67%

Question: And the inhibition of growth at 0.00025 ppm (Phytophthora capsici; Table B17, A-1.2 0.0002500 ppm)?
Answer: 79%

Question: And the inhibition of growth at 0.0005 ppm (Phytophthora capsici; Table B17)?
Answer: 82%

Question: And the inhibition of growth at 7.8e-06 ppm (Phytophthora capsici; Table B18)?
Answer: 0%

Question: And the inhibition of growth at 1.56e-05 ppm (Phytophthora capsici; Table B18)?
Answer: 0%

Question: And the inhibition of growth at 3.13e-05 ppm (Phytophthora capsici; Table B18)?
Answer: 0%

Question: And the inhibition of growth at 6.25e-05 ppm (Phytophthora capsici; Table B18)?
Answer: 0%

Question: And the inhibition of growth at 0.000125 ppm (Phytophthora capsici; Table B18, A-1.2 0.0001250 ppm)?
Answer: 46%

Question: What about the inhibition of growth at 1.56e-05 ppm (Phytophthora capsici; Table B19) of the same molecule?
Answer: 0%

Question: And the inhibition of growth at 3.13e-05 ppm (Phytophthora capsici; Table B19)?
Answer: 0%

Question: What about the inhibition of growth at 6.25e-05 ppm (Phytophthora capsici; Table B19) of the same molecule?
Answer: 0%

Question: What about the inhibition of growth at 0.000125 ppm (Phytophthora capsici; Table B19, A-1.2 0.0001250 ppm) of the same molecule?
Answer: 38%

Question: What about the inhibition of growth at 0.00025 ppm (Phytophthora capsici; Table B19, A-1.2 0.0002500 ppm) of the same molecule?
Answer: 81%

Question: What about the inhibition of growth at 6.25e-05 ppm (Phytophthora capsici; Table B20) of the same molecule?
Answer: 66%

Question: What about the inhibition of growth at 0.000125 ppm (Phytophthora capsici; Table B20, A-1.2 0.0001250 ppm) of the same molecule?
Answer: 83%

Question: And the inhibition of growth at 6.3e-05 ppm (Phytophthora capsici; Table B21, A-1.2 0.000063 ppm)?
Answer: 0%

Question: What about the inhibition of growth at 0.000125 ppm (Phytophthora capsici; Table B21, A-1.2 0.000125 ppm) of the same molecule?
Answer: 69%

Question: What about the inhibition of growth at 0.00025 ppm (Phytophthora capsici; Table B21, A-1.2 0.000250 ppm) of the same molecule?
Answer: 78%

Question: What about the “% disease control relative to untreated” value (Plasmopara viticola) of the same molecule?
Answer: 87.3%

From US10111433B2 (priority 2014, dated 2018)
